In PubChem BioAssay (NCI):
Where “and” joins values, the source holds several entries; their conditions need not be identical. Identical values can stand only once.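 Growth conditions: 96-well plates. Treatment: test compound, 48 hours, 5 concentrations. Analysis: linear interpolation between bracketing concentrations; unreached endpoints set to highest concentration. GI50 is the concentration that inhibits growth by half. Definition used: TGI = concentration required for complete inhibition of growth.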

Key:
Assay in all cases: NCI anticancer screen, dose series, 48 h
M19-MEL melanoma = tested on: M19-MEL melanoma
XF 498 CNS = tested on: XF 498 CNS
RXF-631 renal = tested on: RXF-631 renal
SNB-78 CNS = tested on: SNB-78 CNS
DMS 273 small cell lung = tested on: DMS 273 small cell lung
DMS 114 small cell lung = tested on: DMS 114 small cell lung
T-47D breast = tested on: T-47D breast
MDA-N = tested on: MDA-N
LXFL 529 NSCLC = tested on: LXFL 529 NSCLC

Compound CN(C)C(=S)/N=c1\ss/c(=N\S(=O)(=O)c2ccccc2)n1-c1ccccc1 has a TGI (M19-MEL melanoma) greater than 100 µM, a TGI (XF 498 CNS) of 79.4 µM and a TGI (RXF-631 renal) greater than 100 µM. The TGI (SNB-78 CNS) was greater than 100 µM, the TGI (DMS 273 small cell lung) was greater than 100 µM and the TGI (DMS 114 small cell lung) was 50.3 µM.
Compound COc1cc2c3c(n(CCCN4CCC(N)CC4)c(=O)c2cc1OC)-c1cc2c(cc1C3=O)OCO2 has a GI50 (T-47D breast) of 1060 nM and a TGI (T-47D breast) of 4 µM.
In the case of Cc1ccc([N+](=O)[O-])c2c(NCCCN(C)C)ccnc12, the TGI (T-47D breast) is reported as greater than 100 µM, the TGI (SNB-78 CNS) is reported as greater than 100 µM and the TGI (MDA-N) is reported as 98.4 µM.
Cc1c(C(=O)NN)nnn1-c1ccnc2c(C(F)(F)F)cccc12 showed a GI50 (T-47D breast) greater than 100000 nM and a TGI (T-47D breast) greater than 100 µM.
In the case of NCCN1CCN(c2nccc(-c3ccc4ccccc4c3)n2)CC1, the GI50 (T-47D breast) is reported as 1880 nM and the TGI (T-47D breast) is reported as 4.59 µM.
Work on C=C(C)[C@@H]1CC[C@@]2(C(=O)O)CC[C@]3(C)C(CCC4[C@@]5(C)CCC(OS(=O)(=O)c6ccccc6)C(C)(C)C5CC[C@]43C)C12 (stereo partly drawn) yielded a GI50 (T-47D breast) of 2000 nM and a TGI (T-47D breast) of 17.1 µM.
In the case of O=C(N/N=C/c1ccc(Cl)cc1Cl)c1ccccc1Nc1cccc(C(F)(F)F)c1, the GI50 (T-47D breast) is reported as 2200 nM and the TGI (T-47D breast) is reported as 6.9 µM.
Compound FC(F)(F)c1ccc2c(Nc3cccc(C4CC(c5ccccc5)=NN4c4ccc(Cl)cc4)c3)ccnc2c1 (stereo not drawn) has a GI50 (T-47D breast) of 5930 nM and a TGI (T-47D breast) of 37.4 µM.
With COc1cc(-c2cn(C)c(=O)c(C)c2C)cc(OC)c1CN1CC[C@H](N2CCN(c3ccc(N[C@H]4CCC(=O)NC4=O)cc3F)CC2)C(F)(F)C1 the GI50 (T-47D breast) was 14300 nM and the TGI (T-47D breast) was 49.3 µM.
N#Cc1c(N)c(C(=O)O)nn(-c2cccc(C(F)(F)F)c2)c1=O gave a TGI (M19-MEL melanoma) greater than 100 µM, a TGI (XF 498 CNS) greater than 100 µM and a TGI (RXF-631 renal) greater than 100 µM. For the same compound, the TGI (SNB-78 CNS) was greater than 100 µM and the TGI (LXFL 529 NSCLC) was greater than 100 µM.
Work on CCOC(=O)Cc1nc(/C(C#N)=C/c2ccco2)[nH]c(=O)c1C#N yielded a TGI (M19-MEL melanoma) greater than 100 µM, a TGI (SNB-78 CNS) of 93.9 µM and a TGI (DMS 273 small cell lung) greater than 100 µM. The TGI (LXFL 529 NSCLC) was greater than 100 µM.
Clc1ccc(OCc2nnc3n2N=C(c2ccc(Cl)cc2Cl)CS3)c(Cl)c1 showed a GI50 (T-47D breast) of 33000 nM and a TGI (T-47D breast) greater than 100 µM.
CC1=Nc2c(ccc3c2C(=O)c2ccccc2C3=O)NC(c2ccncc2)C1 (stereo not drawn) was tested, and the GI50 (M19-MEL melanoma) was greater than 100 µM, the TGI (M19-MEL melanoma) was greater than 100 µM and the TGI (XF 498 CNS) was greater than 100 µM. It also gave a TGI (RXF-631 renal) greater than 100 µM, a GI50 (SNB-78 CNS) greater than 100000 nM and a TGI (SNB-78 CNS) greater than 100 µM. For the same compound, the GI50 (DMS 273 small cell lung) was greater than 100000 nM, the TGI (DMS 273 small cell lung) was greater than 100 µM and the TGI (DMS 114 small cell lung) was greater than 100 µM. For the same compound, the GI50 (LXFL 529 NSCLC) was greater than 100000 nM and the TGI (LXFL 529 NSCLC) was greater than 100 µM.
For CCn1c(-c2nonc2N)nc2ccc(F)cc21, the GI50 (T-47D breast) was greater than 25000 nM and the TGI (T-47D breast) was greater than 25 µM.
With O=P(O)(O)C(O)(Cn1ccnc1)P(=O)(O)O the GI50 (T-47D breast) was greater than 79000 nM and the TGI (T-47D breast) was greater than 100 µM.
Work on Cc1ccc(C(=O)CC(Sc2cccc(Cl)c2Cl)c2ccc(Cl)cc2)cc1C (stereo not drawn) yielded a GI50 (T-47D breast) of 27100 nM and a TGI (T-47D breast) of 76.9 µM.
CCCNCc1cc(C)cc2c1nc(N1CCNCC1)n2Cc1cc(C)c(F)c(C)c1 showed a GI50 (T-47D breast) of 1880 nM and a TGI (T-47D breast) of 3.62 µM.
CC(=O)[CH-]C(C)=O.CC(=O)[CH-]C(C)=O.N=CC=N.[Sn+2] was tested, and the GI50 (T-47D breast) was 1230 nM, the TGI (T-47D breast) was 2.62 µM and the GI50 (XF 498 CNS) was 6.49 µM. The TGI (XF 498 CNS) was 16.5 µM, the GI50 (DMS 273 small cell lung) was 2910 nM and the TGI (DMS 273 small cell lung) was 8.57 µM. For the same compound, the GI50 (MDA-N) was 1680 nM, the TGI (MDA-N) was 3.69 µM and the GI50 (DMS 114 small cell lung) was 2320 nM. The TGI (DMS 114 small cell lung) was 5.17 µM, the GI50 (LXFL 529 NSCLC) was 1320 nM and the TGI (LXFL 529 NSCLC) was 2.6 µM.
Work on Oc1c(Br)cc(CN(Cc2cc(Br)c(O)c(Br)c2)C2CCCCC2)cc1Br yielded a TGI (T-47D breast) greater than 100 µM and a TGI (MDA-N) greater than 100 µM.
For COc1cc(/C=C\c2ccc(O)cc2)cc(OC)c1OC, the TGI (M19-MEL melanoma) was greater than 100 µM, the TGI (XF 498 CNS) was greater than 100 µM and the TGI (SNB-78 CNS) was 8.3 µM. It also gave a TGI (DMS 273 small cell lung) of 2.9 µM and a TGI (LXFL 529 NSCLC) greater than 100 µM.
CNc1nc(NC2CCCC2)nc(Sc2ccc(OC)cc2)n1 showed a GI50 (T-47D breast) greater than 10000 nM and a TGI (T-47D breast) greater than 10 µM.
CC(=O)O[C@H]1C(=O)[C@@]2(C)[C@H]([C@H](OC(=O)c3ccccc3)[C@]3([O-])C[C@H](OC(=O)[C@H]([O-])[C@@H](NC(=O)c4ccccc4)c4ccccc4)C(C)=C1C3(C)C)[C@]1(OC(C)=O)CO[C@@H]1C[C@@H]2[O-].[Fe+3] was tested, and the GI50 (T-47D breast) was 80.2 nM and 74.4 nM and the TGI (T-47D breast) was 65 µM and 95.7 µM.
Cc1ccc2/c(=C/c3ccc(N(C)C)cc3)c3cc(-c4ccccc4)[n+](C)n3c2c1 gave a GI50 (T-47D breast) of 95.6 nM and a TGI (T-47D breast) greater than 100 µM.
For C=C(COC(C)=O)CC(/C=C(\C)CCC=C(C)C)OC(C)=O (stereo not drawn), the TGI (M19-MEL melanoma) was greater than 100 µM, the TGI (XF 498 CNS) was greater than 100 µM and the TGI (SNB-78 CNS) was greater than 100 µM. For the same compound, the TGI (DMS 273 small cell lung) was greater than 100 µM, the TGI (DMS 114 small cell lung) was greater than 100 µM and the TGI (LXFL 529 NSCLC) was greater than 100 µM.
C=CC(=O)Nc1cccc(Nc2nc(Nc3ccc(OCCOC)cc3)ncc2F)c1 gave a GI50 (T-47D breast) of 1700 nM and a TGI (T-47D breast) of 8.9 µM.
For CNC(=O)c1cn(C[C@H](F)CCc2ccc(NC(=O)Cc3cc(OC4CC(F)(F)C4)cc(C)n3)nn2)nn1, the GI50 (T-47D breast) was greater than 100000 nM and the TGI (T-47D breast) was greater than 100 µM.
Compound Cc1ccsc1C(=S)Nc1ccc(Cl)c(C(=O)OC(C(C)C)C(C)C)c1 has a TGI (T-47D breast) greater than 100 µM and a TGI (MDA-N) greater than 100 µM.
For COC(=O)C(Cc1ccccc1)N/C=C\C(=O)c1ccc(Cl)cc1 (stereo not drawn), the GI50 (T-47D breast) was 37000 nM and the TGI (T-47D breast) was greater than 100 µM.
C[C@H]1CCC/C=C/[C@@H]2C[C@H](N)C[C@H]2[C@H](O)/C=C/C(=O)O1 gave a GI50 (T-47D breast) greater than 100000 nM, a TGI (T-47D breast) greater than 100 µM and a GI50 (MDA-N) greater than 100000 nM. It also gave a TGI (MDA-N) greater than 100 µM.
CC1(C)CCc2cc3c(cc2O1)OCCC3=O showed a TGI (M19-MEL melanoma) greater than 100 µM, a TGI (XF 498 CNS) greater than 100 µM and a TGI (RXF-631 renal) greater than 100 µM. The TGI (DMS 114 small cell lung) was greater than 100 µM and the TGI (LXFL 529 NSCLC) was greater than 100 µM.
Work on COc1ccc(-c2cc(-c3cc(Cl)ccc3Cl)nc3nc(=S)[nH]c(N)c23)cc1 yielded a GI50 (T-47D breast) greater than 100000 nM and a TGI (T-47D breast) greater than 100 µM.
Oc1c2c(c(O)c3ccccc13)=N[C@@H](c1ccccc1)[C@H](c1ccccc1)N=2 was tested, and the TGI (M19-MEL melanoma) was greater than 100 µM, the TGI (XF 498 CNS) was greater than 100 µM and the TGI (SNB-78 CNS) was greater than 100 µM. It also gave a TGI (DMS 273 small cell lung) greater than 100 µM, a TGI (DMS 114 small cell lung) greater than 100 µM and a TGI (LXFL 529 NSCLC) greater than 100 µM.
Compound CC1=C(C)C(=O)O[C@@H]([C@](C)(O)[C@]2(O)CC[C@@]3(O)[C@@H]4C[C@H]5O[C@]56CC=CC(=O)[C@]6(C)[C@H]4CC[C@]23C)C1 has a GI50 (T-47D breast) of 111 nM and a TGI (T-47D breast) of 1.63 µM.
In the case of c1cc[c]([Sn]([S]c2cccc3cccnc23)([c]2ccccc2)[c]2ccccc2)cc1, the TGI (M19-MEL melanoma) is reported as 0.172 µM, the GI50 (XF 498 CNS) is reported as 0.0241 µM and the TGI (XF 498 CNS) is reported as 0.0524 µM. The GI50 (RXF-631 renal) was 25.6 nM, the TGI (RXF-631 renal) was 0.0804 µM and the GI50 (SNB-78 CNS) was 20.3 nM. The TGI (SNB-78 CNS) was 0.0659 µM, the GI50 (DMS 273 small cell lung) was 17.3 nM and the TGI (DMS 273 small cell lung) was 0.0344 µM. It also gave a GI50 (LXFL 529 NSCLC) of 20.9 nM and a TGI (LXFL 529 NSCLC) of 0.0548 µM.
CNC(=O)c1ccc(-c2cnc3ncc(Cc4ccc5ncccc5c4)n3n2)cc1F was tested, and the GI50 (T-47D breast) was greater than 100000 nM and the TGI (T-47D breast) was greater than 100 µM.
Compound COc1ccc2c(-c3cc4ccccc4o3)cc(=O)oc2c1 has a TGI (T-47D breast) greater than 100 µM, a TGI (M19-MEL melanoma) greater than 100 µM and a TGI (XF 498 CNS) of 45 µM. It also gave a TGI (RXF-631 renal) greater than 100 µM, a TGI (SNB-78 CNS) greater than 100 µM and a TGI (DMS 273 small cell lung) greater than 100 µM. For the same compound, the TGI (MDA-N) was greater than 100 µM and the TGI (LXFL 529 NSCLC) was greater than 100 µM.
With O=C1CCn2c([nH]c3cccc4cccc2c43)=N1 the TGI (M19-MEL melanoma) was greater than 100 µM, the TGI (XF 498 CNS) was greater than 100 µM and the TGI (SNB-78 CNS) was greater than 100 µM. The TGI (DMS 273 small cell lung) was greater than 100 µM, the TGI (DMS 114 small cell lung) was greater than 100 µM and the TGI (LXFL 529 NSCLC) was greater than 100 µM.
